Assay results taken from ChEMBL document CHEMBL4334516, “Kinase Chemodiversity from the Arctic: The Breitfussins” (J Med Chem, 2019).

Columns and labels:
[1] = target: Serine/threonine-protein kinase 36 (Homo sapiens, UniProt Q9NRP7); test: Binding affinity to wild-type human partial length STK36 (M1 to T271 residues) expressed in bacterial expression system by active-site directed competition binding assay based Kinomescan method
[2] = target: Interleukin-1 receptor-associated kinase 3 (Homo sapiens, UniProt Q9Y616); test: Binding affinity to wild-type human partial length IRAK3 (V147 to E596 residues) expressed in bacterial expression system by active-site directed competition binding assay based Kinomescan method
Chain of Interleukin-1 receptor-associated kinase 3 (Q9Y616 whole entry, the tested form may be a part): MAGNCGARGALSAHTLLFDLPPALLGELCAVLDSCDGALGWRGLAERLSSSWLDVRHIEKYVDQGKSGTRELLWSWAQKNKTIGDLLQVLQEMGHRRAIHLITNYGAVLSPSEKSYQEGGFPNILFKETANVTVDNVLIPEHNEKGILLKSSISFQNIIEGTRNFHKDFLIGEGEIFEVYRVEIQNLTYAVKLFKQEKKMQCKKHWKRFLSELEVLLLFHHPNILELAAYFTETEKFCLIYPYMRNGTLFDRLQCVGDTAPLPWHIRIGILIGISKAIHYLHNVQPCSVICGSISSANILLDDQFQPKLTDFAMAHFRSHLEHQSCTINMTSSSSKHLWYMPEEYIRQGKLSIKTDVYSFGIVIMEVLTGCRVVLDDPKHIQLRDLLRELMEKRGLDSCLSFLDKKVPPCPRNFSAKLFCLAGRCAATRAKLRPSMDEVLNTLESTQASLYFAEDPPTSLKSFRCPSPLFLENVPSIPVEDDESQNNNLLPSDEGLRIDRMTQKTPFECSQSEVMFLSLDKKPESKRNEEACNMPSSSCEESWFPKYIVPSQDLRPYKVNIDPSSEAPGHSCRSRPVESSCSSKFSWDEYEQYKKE

[3] = target: Receptor-interacting serine/threonine-protein kinase 2 (Homo sapiens, UniProt O43353); test: Inhibition of RIPK2 (unknown origin) assessed as residual enzyme activity at 50 uM by [33P]-ATP filter binding kinase assay relative to control
Chain of Receptor-interacting serine/threonine-protein kinase 2 (O43353 whole entry, the tested form may be a part): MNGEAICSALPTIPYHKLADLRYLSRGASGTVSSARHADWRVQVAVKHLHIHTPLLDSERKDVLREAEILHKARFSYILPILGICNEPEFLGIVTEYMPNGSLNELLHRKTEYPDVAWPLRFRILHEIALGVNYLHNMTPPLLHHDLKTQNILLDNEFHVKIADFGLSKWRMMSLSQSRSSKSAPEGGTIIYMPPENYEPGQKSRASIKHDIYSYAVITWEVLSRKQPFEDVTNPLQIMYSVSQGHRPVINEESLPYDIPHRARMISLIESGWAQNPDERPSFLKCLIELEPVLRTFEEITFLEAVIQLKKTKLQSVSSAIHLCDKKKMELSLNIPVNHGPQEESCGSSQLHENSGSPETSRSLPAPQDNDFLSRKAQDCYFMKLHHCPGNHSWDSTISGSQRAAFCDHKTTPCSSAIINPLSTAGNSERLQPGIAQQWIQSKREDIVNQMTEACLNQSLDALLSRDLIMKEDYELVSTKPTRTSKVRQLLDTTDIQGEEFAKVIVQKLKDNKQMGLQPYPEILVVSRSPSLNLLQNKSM

[4] = target: 1-phosphatidylinositol 3-phosphate 5-kinase (Homo sapiens, UniProt Q9Y2I7); test: Binding affinity to wild-type human partial length PIKFYVE (F1512 to C2098 residues) expressed in mammalian expression system by active-site directed competition binding assay based Kinomescan method
Chain of 1-phosphatidylinositol 3-phosphate 5-kinase (Q9Y2I7 whole entry, the tested form may be a part): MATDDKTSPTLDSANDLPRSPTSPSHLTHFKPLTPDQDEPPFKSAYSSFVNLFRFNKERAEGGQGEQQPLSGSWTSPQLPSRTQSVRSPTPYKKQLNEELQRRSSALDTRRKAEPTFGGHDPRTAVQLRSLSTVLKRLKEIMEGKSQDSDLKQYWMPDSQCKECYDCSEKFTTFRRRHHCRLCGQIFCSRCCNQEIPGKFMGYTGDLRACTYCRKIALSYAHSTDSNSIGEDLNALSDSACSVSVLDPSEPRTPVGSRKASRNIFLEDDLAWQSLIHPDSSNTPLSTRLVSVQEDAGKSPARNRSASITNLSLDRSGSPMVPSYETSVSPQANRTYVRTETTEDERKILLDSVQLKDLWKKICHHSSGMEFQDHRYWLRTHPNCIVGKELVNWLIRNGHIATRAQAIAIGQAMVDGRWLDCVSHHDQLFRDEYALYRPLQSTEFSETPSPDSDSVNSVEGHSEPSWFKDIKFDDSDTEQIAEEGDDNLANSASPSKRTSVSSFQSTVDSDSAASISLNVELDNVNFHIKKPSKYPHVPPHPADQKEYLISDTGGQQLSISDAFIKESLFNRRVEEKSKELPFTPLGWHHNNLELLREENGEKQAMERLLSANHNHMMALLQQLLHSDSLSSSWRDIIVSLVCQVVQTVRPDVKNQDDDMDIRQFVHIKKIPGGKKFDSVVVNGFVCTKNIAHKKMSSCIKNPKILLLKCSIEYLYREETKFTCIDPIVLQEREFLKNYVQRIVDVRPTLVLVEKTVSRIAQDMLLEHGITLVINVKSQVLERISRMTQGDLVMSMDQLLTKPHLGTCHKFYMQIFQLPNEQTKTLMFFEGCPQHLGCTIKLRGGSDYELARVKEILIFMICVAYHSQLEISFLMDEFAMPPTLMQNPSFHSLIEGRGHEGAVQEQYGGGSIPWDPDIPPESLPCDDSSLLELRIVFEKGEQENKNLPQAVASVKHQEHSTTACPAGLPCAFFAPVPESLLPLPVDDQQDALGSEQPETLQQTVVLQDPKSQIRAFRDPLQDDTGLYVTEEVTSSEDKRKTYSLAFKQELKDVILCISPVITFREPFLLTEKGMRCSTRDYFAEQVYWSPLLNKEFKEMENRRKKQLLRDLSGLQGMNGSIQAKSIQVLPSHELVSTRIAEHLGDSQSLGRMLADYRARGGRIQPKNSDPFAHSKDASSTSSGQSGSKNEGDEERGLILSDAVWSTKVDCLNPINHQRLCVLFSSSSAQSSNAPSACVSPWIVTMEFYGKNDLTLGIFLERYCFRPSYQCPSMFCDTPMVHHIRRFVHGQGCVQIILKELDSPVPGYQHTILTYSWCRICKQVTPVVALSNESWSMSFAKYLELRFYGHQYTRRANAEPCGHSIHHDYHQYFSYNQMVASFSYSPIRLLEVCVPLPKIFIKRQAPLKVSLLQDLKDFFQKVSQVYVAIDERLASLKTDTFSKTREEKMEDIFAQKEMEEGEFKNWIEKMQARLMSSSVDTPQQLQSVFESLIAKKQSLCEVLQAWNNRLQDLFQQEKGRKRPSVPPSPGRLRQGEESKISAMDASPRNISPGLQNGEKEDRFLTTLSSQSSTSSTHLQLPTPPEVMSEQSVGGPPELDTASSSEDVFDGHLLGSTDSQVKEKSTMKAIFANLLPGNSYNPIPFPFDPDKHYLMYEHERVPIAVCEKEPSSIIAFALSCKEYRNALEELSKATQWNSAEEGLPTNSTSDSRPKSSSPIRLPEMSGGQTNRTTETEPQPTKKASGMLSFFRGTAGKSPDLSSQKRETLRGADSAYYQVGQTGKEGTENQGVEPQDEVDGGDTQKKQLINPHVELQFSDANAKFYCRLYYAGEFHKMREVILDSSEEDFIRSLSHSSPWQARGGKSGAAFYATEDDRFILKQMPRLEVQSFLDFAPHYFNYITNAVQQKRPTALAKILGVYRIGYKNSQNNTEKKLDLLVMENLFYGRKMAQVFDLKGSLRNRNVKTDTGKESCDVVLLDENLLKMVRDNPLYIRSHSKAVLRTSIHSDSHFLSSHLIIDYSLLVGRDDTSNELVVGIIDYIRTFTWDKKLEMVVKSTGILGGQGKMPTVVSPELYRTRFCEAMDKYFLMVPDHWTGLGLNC

[5] = Cytotoxicity in human RD-ES cells assessed as reduction in cell viability incubated for 72 hrs by SRB assay

Chain of Serine/threonine-protein kinase 36 (Q9NRP7 whole entry, the tested form may be a part): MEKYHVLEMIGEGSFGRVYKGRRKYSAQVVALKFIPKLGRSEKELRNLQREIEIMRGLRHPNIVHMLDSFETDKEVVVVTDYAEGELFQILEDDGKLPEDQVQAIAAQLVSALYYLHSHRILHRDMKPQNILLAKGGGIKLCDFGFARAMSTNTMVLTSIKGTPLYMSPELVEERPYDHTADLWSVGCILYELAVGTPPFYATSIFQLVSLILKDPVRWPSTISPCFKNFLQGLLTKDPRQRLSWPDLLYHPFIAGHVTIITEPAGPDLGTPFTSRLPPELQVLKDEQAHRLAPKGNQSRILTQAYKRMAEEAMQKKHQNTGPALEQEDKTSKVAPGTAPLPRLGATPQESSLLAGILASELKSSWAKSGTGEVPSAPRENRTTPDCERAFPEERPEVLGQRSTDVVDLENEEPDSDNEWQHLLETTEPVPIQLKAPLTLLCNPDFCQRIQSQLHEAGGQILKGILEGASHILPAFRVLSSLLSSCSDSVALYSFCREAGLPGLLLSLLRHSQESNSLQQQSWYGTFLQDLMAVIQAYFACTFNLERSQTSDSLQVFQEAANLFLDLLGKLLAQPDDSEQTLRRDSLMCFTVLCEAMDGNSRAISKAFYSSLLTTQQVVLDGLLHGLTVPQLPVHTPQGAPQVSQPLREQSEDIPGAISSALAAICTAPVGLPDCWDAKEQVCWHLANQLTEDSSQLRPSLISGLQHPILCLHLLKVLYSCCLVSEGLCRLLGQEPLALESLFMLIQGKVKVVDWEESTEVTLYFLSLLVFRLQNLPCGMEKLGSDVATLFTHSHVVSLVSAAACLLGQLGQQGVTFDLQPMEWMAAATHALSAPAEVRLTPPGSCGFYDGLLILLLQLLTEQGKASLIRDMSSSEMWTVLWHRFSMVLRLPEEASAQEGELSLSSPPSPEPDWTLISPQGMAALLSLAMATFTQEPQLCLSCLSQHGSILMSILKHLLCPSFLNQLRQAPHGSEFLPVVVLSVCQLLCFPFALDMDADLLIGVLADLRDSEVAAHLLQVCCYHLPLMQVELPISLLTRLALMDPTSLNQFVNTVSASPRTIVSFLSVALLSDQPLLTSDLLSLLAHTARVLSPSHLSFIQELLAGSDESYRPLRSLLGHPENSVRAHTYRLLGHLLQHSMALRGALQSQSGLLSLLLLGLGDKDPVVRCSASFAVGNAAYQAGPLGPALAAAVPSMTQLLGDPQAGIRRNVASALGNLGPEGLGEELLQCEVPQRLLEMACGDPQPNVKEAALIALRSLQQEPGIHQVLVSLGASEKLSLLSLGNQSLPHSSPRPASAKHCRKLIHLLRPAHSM

For COc1cc2c(-c3cnc(-c4ccc[nH]4)o3)c[nH]c2cc1Br, the Kd [1] was 2700 nM, the Kd [2] was 1700 nM and the Activity [3] was 10%. It also gave a Kd [4] of 1000 nM and an IC50 [5] of 2500 nM.
